Measurements published in PMC5365645, “Preclinical Pharmacokinetics and Pharmacodynamic Target of SCY-078, a First-in-Class Orally Active Antifungal Glucan Synthesis Inhibitor, in Murine Models of Disseminated Candidiasis” (Antimicrobial Agents and Chemotherapy, 2017).
Values after ≈ are worked out from the molar mass of the structure shown.

What was measured:
C. albicans MY1055 = test: In vitro MIC, broth microdilution CLSI M27-A3; assay type: cell-based; conditions: Candida albicans, 50% inhibition of fungal growth at 24 h
Method: A disseminated Candida infection was induced in C′5-deficient DBA/2N mice (Taconic Farms, Germantown, NY), weighing on average 20 g, by i.v. inoculation with C. albicans MY1055 (Merck Culture Collection). C. albicans MY1055 was cultured on Sabouraud dextrose agar (SDA; BBL, Cockeysville, MD) plates at 35°C for 24 h. Yeast cells were washed from the surface of agar plates into sterile saline, and the cell concentrations were quantitated by using a hemocytometer. Viable cell counts were confirmed by a serial 10-fold dilution of the cell suspension and plating on SDA plates. Plates were incubated for 24 to 48 h at 35°C, whereupon the numbers of CFU were determined. The in vitro activity of SCY-078 against the MY1055 isolate was evaluated using broth microdilution assays as described in CLSI M27-A3 ([39]).

[1] = In vitro metabolic stability in hepatic microsomes; assay type: in vitro ADME, mouse; conditions: for remaining at 0.5 h, 1 µM: read-out: % remaining after 30 min; for half-life at 1 μM / microsomal CLint at 1 μM: pooled liver microsomes
Method: The metabolic stability of SCY-078 was assessed after incubation with mouse, rat, dog, and human liver microsomes (Table 2) ([10]). […] The half-lives in rodent, dog, and human liver microsomes were ≥125, ≥29, and ≥42 min, respectively.
(§1) The metabolic stability of SCY-078 was evaluated with male and female mouse, male rat, male and female dog, and mixed-gender human liver microsomes (XenoTech, Lenexa, KS). SCY-078 (1 μM) was incubated with pooled liver microsomes (0.5 mg protein/ml) for 0, 5, 10, 20, and 30 min at 37°C in the presence of NADPH. Aliquots were taken at each sampling time point and extracted with 5 volumes of ice-cold acetonitrile containing the internal standard (d9-SCY-078, 125 ng/ml). Supernatants from the incubation mixtures were analyzed for the parent compound by LC-MS/MS according to the conditions described below. The metabolic competency of microsomal preparations was established using the control compounds 7-ethoxycoumarin, propranolol, and verapamil. The in vitro intrinsic clearance (CLint), the CLint scaled to the in vivo intrinsic clearance (CL′int), and the half-life were determined for SCY-078 incubated with microsomes from each species.

[2] = system: C. glabrata isolate CG 5592; set-up: method as in PMID 25512406; conditions: cited from earlier work
[3] = In vitro metabolic stability in hepatic microsomes, dog or human summary; assay type: in vitro ADME; conditions: both sexes, liver microsomes
Method: Scaling intrinsic clearance to hepatic clearance based on liver blood flow indicates low clearance in rodents and moderate clearance in dogs and humans ([15]). These solubility, permeability, and metabolic stability data are consistent with SCY-078 being well absorbed from the intestine and able to achieve clinically relevant exposures following oral delivery.
as §1

[4] = Plasma protein binding by equilibrium dialysis, across species; assay type: in vitro ADME, and human; conditions: DBA (mouse), Sprague-Dawley (rat), beagle (dog), human, pH 7.4, range across species, 0.1 to 10 μM
Method: In vitro reversible protein binding and blood/plasma partition ratio were determined for SCY-078 in mouse, rat, dog, and human plasma and whole blood (Table 3). […] The unbound fraction of SCY-078 in plasma determined by means of equilibrium dialysis was 0.2 to 0.5% (99.8 to 99.5% bound) and appeared to be independent of concentration over the range studied (0.1 to 10 μM). Within the limitations of the assay method, binding perhaps appeared modestly higher in rodent plasma than in dog or human plasma; however, the study was not powered to identify differences between species.
Protein binding of [^3H]SCY-078 in mouse, rat, dog, and human plasma was determined by means of equilibrium dialysis and liquid scintillation counting. Tritium-labeled SCY-078 in ethanol was added to unlabeled SCY-078 in methanol to prepare stock solutions at 10, 100, and 1,000 μM SCY-078 with constant activity.
Protein binding was determined against isotonic phosphate-buffered saline (pH 7.4) at 37°C for 24 h. […] After incubation, aliquots (100 μl) of plasma and phosphate buffer were counted for radioactivity (Beckman LS6500 liquid scintillation counter), and unbound fractions of SCY-078 were estimated based on the following calculation: unbound fraction = radioactivity (dpm/0.1 ml) in buffer/total radioactivity (dpm/0.1 ml) in plasma.

`CC(C)[C@@H](C)[C@@]1(C)CC[C@]2(C)[C@H]3CC[C@@H]4[C@@]5(COC[C@@]4(C)[C@@H](OC[C@](C)(N)C(C)(C)C)[C@H](n4ncnc4-c4ccncc4)C5)C3=CC[C@@]2(C)[C@@H]1C(=O)O` [SCY-078, (1S,4aR,6aS,7R,8R,10aR,10bR,12aR,14R,15R)-15-[[(2R)-2-amino-2,3,3-trimethylbutyl]oxy]-8-[(1R)-1,2-dimethylpropyl]-14-[5-(4-pyridinyl)-1H-1,2,4-triazol-1-yl]-1,6,6a,7,8,9,10,10a,10b,11,12,12a-dodecahydro-1,6a,8,10a-tetramethyl-4H-1,4a-propano-2H-phenanthro[1,2-c]pyran-7-carboxylic acid] showed an MIC (C. albicans MY1055) of 0.03 µg/mL (≈ 0.0411 µM), a remaining at 0.5 h, 1 µM ([1]; female mouse liver microsomes) of 88% and a remaining at 0.5 h, 1 µM ([1]; male mouse liver microsomes) of 95%. For the same molecule, the half-life at 1 μM ([1]; female mouse liver microsomes) was > 2.25 h, the microsomal CLint at 1 μM ([1]; female mouse liver microsomes) was < 10 µL/min/mg and the half-life at 1 μM ([1]; male mouse liver microsomes) was > 2.25 h. For the same molecule, the microsomal CLint at 1 μM ([1]; male mouse liver microsomes) was < 10 µL/min/mg, the MIC [2] was 0.25 µg/mL (≈ 0.342 µM) and the remaining at 0.5 h, 1 µM ([3]; dog or human microsomes, read-out: % remaining after 30 min) was ~50%. The half-life at 1 μM ([3]; dog or human microsomes, read-out: Half-life (t0.5)) was ≥ 0.483 h, the microsomal CLint at 1 μM ([3]; larger species (dog, human), read-out: Intrinsic clearance) was < 48 µL/min/mg and the fraction unbound at 24 h [4] was 0.002 to 0.005.
